Assay results reported in the supplement of paper PMC10307832.

Assays:
Assay in all cases: relative viability (nuclei count vs DMSO), 5 days (fraction); higher = more cells survive
AZD8055 + Foretinib = compound: COc1ccc(-c2ccc3c(N4CCOC[C@@H]4C)nc(N4CCOC[C@@H]4C)nc3n2)cc1CO [AZD8055] + COc1cc2c(Oc3ccc(NC(=O)C4(C(=O)Nc5ccc(F)cc5)CC4)cc3F)ccnc2cc1OCCCN1CCOCC1 [Foretinib] (partner 0.25 µM)
In short: (§1)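 Relative viability equals treated-well nuclei counts divided by vehicle-well nuclei counts. Counts came from 4× images of lung cancer cell lines grown in 1536-well plates for 5 days after pin-tool dosing on the day after seeding. Dosing used one drug alone or a fixed anchor-drug dose plus five library-drug doses (not always all listed) in √10 steps, and values are medians of duplicate plates.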

AZD8055 + Pictilisib = compound: COc1ccc(-c2ccc3c(N4CCOC[C@@H]4C)nc(N4CCOC[C@@H]4C)nc3n2)cc1CO [AZD8055] + CS(=O)(=O)N1CCN(Cc2cc3nc(-c4cccc5[nH]ncc45)nc(N4CCOCC4)c3s2)CC1 [Pictilisib] (partner 1 µM)
In short: as §1

AZD8055 + AZD7762 = compound: COc1ccc(-c2ccc3c(N4CCOC[C@@H]4C)nc(N4CCOC[C@@H]4C)nc3n2)cc1CO [AZD8055] + NC(=O)Nc1cc(-c2cccc(F)c2)sc1C(=O)N[C@H]1CCCNC1 [AZD7762] (partner 0.2 µM)
In short: as §1

AZD8055 + Vorinostat = compound: COc1ccc(-c2ccc3c(N4CCOC[C@@H]4C)nc(N4CCOC[C@@H]4C)nc3n2)cc1CO [AZD8055] + O=C(CCCCCCC(=O)Nc1ccccc1)NO [Vorinostat] (partner 1 µM)
In short: as §1

Cell Line	relative viability (AZD8055 + Foretinib; first compound 0.01 µM)	relative viability (AZD8055 + Foretinib; first compound 0.03162 µM)	relative viability (AZD8055 + Foretinib; first compound 0.1 µM)	relative viability (AZD8055 + Foretinib; first compound 0.3162 µM)	relative viability (AZD8055 + Foretinib; first compound 1 µM)	relative viability (AZD8055 + Pictilisib; first compound 0.01 µM)	relative viability (AZD8055 + Pictilisib; first compound 0.03162 µM)	relative viability (AZD8055 + Pictilisib; first compound 0.1 µM)	relative viability (AZD8055 + Pictilisib; first compound 0.3162 µM)	relative viability (AZD8055 + Pictilisib; first compound 1 µM)	relative viability (AZD8055 + AZD7762; first compound 0.01 µM)	relative viability (AZD8055 + AZD7762; first compound 0.03162 µM)	relative viability (AZD8055 + AZD7762; first compound 0.1 µM)	relative viability (AZD8055 + AZD7762; first compound 0.3162 µM)	relative viability (AZD8055 + AZD7762; first compound 1 µM)	relative viability (AZD8055 + Vorinostat; first compound 0.01 µM)	relative viability (AZD8055 + Vorinostat; first compound 0.03162 µM)	relative viability (AZD8055 + Vorinostat; first compound 0.1 µM)	relative viability (AZD8055 + Vorinostat; first compound 0.3162 µM)	relative viability (AZD8055 + Vorinostat; first compound 1 µM)
201T	1.34	1.08	0.892	0.391	0.328	0.623	0.606	0.521	0.495	0.472	0.621	0.413	0.5	0.362	0.374	0.974	0.943	0.824	0.679	0.575
NCI-H838	1	0.913	0.597	0.398	0.347	0.439	0.212	0.212	0.219	0.257	1.06	0.932	0.85	0.711	0.659	0.695	0.577	0.447	0.428	0.346
PC-14	1.18	1.04	1.07	0.488	0.299	0.587	0.452	0.294	0.184	0.113	0.458	0.394	0.294	0.147	0.102	0.78	0.606	0.586	0.201	0.125
LK-2	0.938	0.938	0.648	0.292	0.142	0.571	0.438	0.368	0.335	0.195	0.285	0.204	0.205	0.104	0.135	0.3	0.172	0.271	0.167	0.157
NCI-H1944	1.04	0.793	0.648	0.409	0.321	0.323	0.302	0.278	0.275	0.287	0.455	0.453	0.393	0.268	0.202	0.518	0.431	0.422	0.223	0.207
HCC-78	0.496	0.527	0.388	0.417	0.308	0.216	0.218	0.164	0.178	0.164	0.658	0.541	0.47	0.347	0.269	0.428	0.394	0.38	0.398	0.321
NCI-H2405	1.03	0.977	0.816	0.432	0.381	0.503	0.398	0.316	0.182	0.223	0.832	0.779	0.621	0.324	0.313	1.19	0.918	0.796	0.36	0.373
EMC-BAC-2	0.965	0.846	0.809	0.393	0.347	0.511	0.494	0.475	0.279	0.286	1.03	0.912	0.956	0.517	0.377	0.445	0.342	0.303	0.263	0.287
NCI-H596	0.79	0.551	0.474	0.319	0.335	0.341	0.363	0.32	0.308	0.337	1.04	0.776	0.632	0.567	0.489	0.565	0.567	0.441	0.455	0.428
LCLC-97TM1	0.963	0.74	0.671	0.417	0.529	0.172	0.107	0.106	0.108	0.176	0.23	0.176	0.173	0.145	0.11	0.751	0.585	0.414	0.354	0.308
H3255	0.562	0.769	0.786	0.418	0.308	0.518	0.45	0.249	0.277	0.272	1.03	0.951	0.803	0.471	0.413	0.967	0.746	0.747	0.513	0.357
LXF-289	1.05	1.02	0.962	0.763	0.72	0.83	0.673	0.556	0.411	0.454	1.28	1.2	1.19	0.978	0.744	0.745	0.754	0.709	0.523	0.515
LC-2-ad	1.05	0.855	0.652	0.58	0.469	0.464	0.458	0.322	0.339	0.255	0.909	0.873	0.816	0.791	0.645	0.773	0.688	0.705	0.497	0.457
A-427	0.954	0.983	0.856	0.491	0.416	0.747	0.684	0.677	0.501	0.507	0.762	0.597	0.529	0.5	0.427	0.928	0.868	0.849	0.6	0.535
NCI-H322M	0.933	0.802	0.781	0.573	0.6	0.46	0.463	0.436	0.444	0.422	0.51	0.454	0.434	0.426	0.432	0.85	0.839	0.8	0.511	0.538
HCC-366	0.979	0.913	0.687	0.428	0.417	0.0713	0.137	0.132	0.0885	0.0934	0.364	0.255	0.268	0.124	0.0821	0.372	0.205	0.182	0.0725	0.0602
